Experimental data reported in publication PMC3335822 (PLoS ONE, 2012).

Legend:
HUVECs = assay: HUVEC tubulogenesis assay on Matrigel; assay type: cell-based, human; conditions: for effect on tubulogenesis, in words: up to 7.5 μM
Method: Tubulogenesis assays were performed in 15-well micro-slide (ibidi LLC, Verona WI), using growth factor-reduced matrigel (BD Bioscience, Billerica, MA). The matrix was prepared by loading 10 μl of matrigel in each micro-slide well and allowing it to solidify for 30 minutes at 37°C. HUVECs were trypsinized and resuspended at 100,000 cell/ml in EBM +2.5% FBS. 50 μl (5,000 cell) were loaded on top of the solidified matrigel and the preparation was incubated for 20 hours at 37°C in a humidified incubator in a 5% CO2 atmosphere. Bright field images were taken using an inverted microscope at 2.5× magnification, which allowed imaging of the whole well in two pictures that were later merged in Photoshop. Tubular structures were traced and counted using NeuroJ (NIH, USA). In experiments with inhibitor, the inhibitor was added to the cell suspension before loading. Each sample was loaded in triplicate, and each treatment was repeated for reproducibility.

human EYA3 = target: T1, human EYA3 (Homo sapiens, UniProt Q99504); assay: pNPP hydrolysis by full-length EYA3; assay type: biochemical
T1 construct: residues 127–573 of NM_001990, isoform 1; His-GST (poly-histidine, glutathione-S-transferase) with TVMV protease site (cleaved yes); made in house
T1 sequence (Q99504 127-573): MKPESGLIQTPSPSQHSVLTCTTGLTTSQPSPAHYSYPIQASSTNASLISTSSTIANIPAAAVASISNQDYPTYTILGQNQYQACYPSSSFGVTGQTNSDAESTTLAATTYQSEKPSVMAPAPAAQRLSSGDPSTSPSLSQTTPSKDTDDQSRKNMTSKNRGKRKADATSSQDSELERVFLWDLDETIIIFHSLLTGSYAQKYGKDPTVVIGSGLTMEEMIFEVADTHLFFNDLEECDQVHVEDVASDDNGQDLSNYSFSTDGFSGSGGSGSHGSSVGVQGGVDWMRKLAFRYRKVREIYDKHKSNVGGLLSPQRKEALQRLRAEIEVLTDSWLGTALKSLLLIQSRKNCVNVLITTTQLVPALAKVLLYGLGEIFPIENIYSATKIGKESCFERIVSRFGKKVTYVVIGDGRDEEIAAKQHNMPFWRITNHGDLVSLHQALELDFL
Source text: The catalytic domain (ED) of mouse Eyes Absent 3 (Eya3(223–510)) was purified as described before. Human Eyes Absent 3 isoform 2 (representing the major species identified in human cell lines by mass spectrometry and residues 127–573 of NM_001990, isoform 1) was sub-cloned into pDEST565 to express a poly-histidine- Glutathione-S-transferase (His-GST) tagged fusion protein with a TVMV protease site. The protein was purified by glutathione-S-transferase affinity chromatography followed by TVMV cleavage, Ni-NTA chromatography, and finally size exclusion chromatography. […]
(§1) Compounds were dissolved in DMSO and diluted as needed. […] Reactions were incubated at 30°C for 30 minutes and quenched with 100 mM EDTA pH 10. IC50 values were then calculated directly from regression curves using PRISM. All reported values are the mean of two independent experiments.

EYA3-SIX2 interaction = target: T2, EYA3-SIX2 interaction (Homo sapiens, UniProt Q99504); assay: His-SIX2 Ni-NTA pull-down of EYA3; assay type: binding; conditions: 50 μM, 15 minutes at room temperature
T2 construct: residues 127–573 of NM_001990, isoform 1; His-GST (poly-histidine, glutathione-S-transferase) with TVMV protease site (cleaved yes); made in house
T2 sequence (Q99504 127-573): T1 sequence (Q99504 127-573)
T2 sequence (Q9NPC8 1-291 partner): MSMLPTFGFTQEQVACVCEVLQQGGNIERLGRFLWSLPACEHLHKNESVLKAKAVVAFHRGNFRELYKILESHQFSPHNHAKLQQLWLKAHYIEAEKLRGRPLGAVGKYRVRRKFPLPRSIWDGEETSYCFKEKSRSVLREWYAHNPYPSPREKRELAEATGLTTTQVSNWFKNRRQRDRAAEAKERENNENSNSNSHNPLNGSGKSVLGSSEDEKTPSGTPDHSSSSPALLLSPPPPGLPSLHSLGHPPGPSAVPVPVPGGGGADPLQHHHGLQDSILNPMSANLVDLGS
Source text: The catalytic domain of the EYAs also mediates its interaction with the SIX proteins. This complex then translocates to the nucleus where the SIX-EYA complex can activate transcription.

human EYA2(ED) = target: T3, human EYA2(ED) (Homo sapiens, UniProt O00167); assay: pNPP hydrolysis by the catalytic domain of EYA2; assay type: biochemical; conditions: substrate pNPP
T3 sequence (O00167 267-538 limits assumed): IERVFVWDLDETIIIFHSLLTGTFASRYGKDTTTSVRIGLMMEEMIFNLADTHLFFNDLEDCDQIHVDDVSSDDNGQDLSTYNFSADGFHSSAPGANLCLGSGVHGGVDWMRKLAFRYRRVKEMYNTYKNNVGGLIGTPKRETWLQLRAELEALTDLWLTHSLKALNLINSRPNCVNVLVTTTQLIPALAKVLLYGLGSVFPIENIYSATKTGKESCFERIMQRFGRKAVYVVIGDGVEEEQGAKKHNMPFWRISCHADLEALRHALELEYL
Method: The catalytic domain of human Eyes Absent 2 was similarly sub-cloned as a poly-histidine fusion construct in the vector pDEST-527. Fusion protein was purified by Ni-NTA chromatography and followed by size-exclusion chromatography over a Superdex-75 column. The relative purity of protein samples was determined using SDS-PAGE. PTP1B was purified as described previously.
The NCI Diversity Set II was obtained from the NCI in 96-well trays from the NIH Molecular Libraries Program and stored as 10 mM stocks in DMSO. An initial manual screen was conducted using the previously described p-nitrophenylphosphate assay and mouse Eya3(223–510) in a reaction mixture containing 20 mM MES pH 6, 2 mM MgCl2, 125 μM inhibitor, 3.4 mM para-nitrophenol phosphate (pNPP) and 0.01 μg/µL enzyme. The amount of 4-nitrophenol (pNP) produced was monitored at […] on a BioTek EL808 plate reader. A similar protocol was used to screen for inhibitor activity using hEYA3 and hEYA2(ED).
as §1

Row | inhibitory effect in the presence of detergent (human EYA3; 0.01% Triton X-100) | IC50 (human EYA2(ED)) | Structure (SMILES) | reduction in tube formation (HUVECs; 2.5 μM) | effect on tubulogenesis, in words (HUVECs) | IC50 (human EYA3; full-length human EYA3, substrate pNPP) | effect on the interaction between EYA3 and SIX2 (EYA3-SIX2 interaction)
1 | – | – | CCc1oc2ccccc2c1C(=O)c1ccc(O)cc1 [Compound 1a, Benzarone] | ~50% | potently inhibited tubulogenesis in a dose-dependent fashion | 17 µM | –
2 | inhibitory effect was retained | 10.3 µM | CCc1oc2ccccc2c1C(=O)c1cc(Br)c(O)c(Br)c1 [Compound 1, Benzbromarone] | – | effective only at the highest concentrations tested (7.5 μM) | – | does not affect the interaction between EYA3 and SIX2
